Laboratory results reported in patent US11292807B2 (OCEANS LTD., priority 2015, dated 2022).
Like-named read-outs stand apart in the source and are kept apart here.

Columns and labels:
MDA-MB [1] = conditions: MDA-MB
MDA-MB [2] = experiment: cells; conditions: Homo sapiens, read-out: Average cell viability, MDA-MB
PC3 = experiment: CIMA assay, cell viability, PC3; conditions: for Fold change in viability AVG: PC3
[3] = tested on: U373 (glioblastoma-astrocytoma); experiment: CIMA assay, cell viability, U373; conditions: for Fold change in viability AVG: U373
Description: (§1) Stock solutions of the extracts were prepared in dimethylsulfoxide (DMSO) at 10 mg/mL and stored in 200 μl aliquots at −20° C. until analysis. This preparation ensured that the DMSO delivered to cells in culture never exceeded 1%.
(§2) Prepared extracts were assessed following chronic exposure conditions in which cells were seeded at 2×10^3 cells/well (96 well-plate) and incubated with test compounds for 72 h. Each compound was evaluated over a range of concentrations (0, 10, 25, 50 or 100 μg/ml). Cell proliferation was initially assessed using a standard colorimetric indicator of metabolic activity (CIMA) assay. In this assay, tetrazole reduction was evaluated as a measure of metabolic function that evaluates mitochondrial activity to determine the extent of cell proliferation within a culture. This assay is based on the reduction of yellow tetrazolium salt to purple formazan by mitochondrial reductases enzyme in viable cells, resulting in a color changed that confers a change in absorbance.

[4] = tested on: SKOV3 (ovarian adenocarcinoma); experiment: CIMA assay, cell viability, SKOV3; conditions: for Fold change in viability AVG: SKOV
[5] = tested on: THP-1 (acute monocytic leukemia); experiment: CIMA assay, cell viability, THP-1; conditions: for Fold change in viability AVG: THP-1
[6] = CIMA assay, cell viability, CCD1079SK; conditions: human, Average cell viability, CCD
Description: as §1, §2

[7] = tested on: CCD1079SK (fibroblast, noncancerous but proliferating); experiment: CIMA assay, cell viability, CCD1079SK; conditions: CCD
Description: as §1, §2

A549 (lung carcinoma) = experiment: CIMA assay (colorimetric indicator of metabolic activity), cell viability, A549; conditions: for Fold change in viability AVG: A549

SMILES: CC/C=C\C/C=C\C/C=C\C/C=C\CCC(=O)OC(COC(=O)CCCCCCC/C=C\C/C=C\C/C=C\CC)COC1OC(CO)C(O)C(O)C1O (stereo not shown) [Compound 14, MGDG C18:3/C16:4]
- MDA-MB AVG (MDA-MB [1]; sample at 1 ug/mL): 1.13
- MDA-MB AVG (MDA-MB [1]; sample at 10 ug/mL): 1.11
- MDA-MB AVG (MDA-MB [1]; sample at 50 ug/mL): 0.74
- MDA-MB AVG (MDA-MB [1]; sample at 100 ug/mL): 0.20
- Fold change in viability AVG (MDA-MB [1]; 1 ug/mL): 1.13
- Fold change in viability AVG (MDA-MB [1]; 10 ug/mL): 1.11
- Fold change in viability AVG (MDA-MB [1]; 50 ug/mL): 0.74
- Fold change in viability AVG (MDA-MB [1]; 100 ug/mL): 0.20
- viability at 1 µg/mL (MDA-MB [2]; 1 ug/mL): 104%
- viability at 10 µg/mL (MDA-MB [2]; 10 ug/mL): 102%
- viability at 50 µg/mL (MDA-MB [2]; 50 ug/mL): 68%
- viability at 100 µg/mL (MDA-MB [2]; 100 ug/mL): 18%
- viability at 1 µg/mL (PC3; Homo sapiens, PC-3, read-out: Average cell viability, PC3, 1 ug/mL): 103%
- viability at 10 µg/mL (PC3; Homo sapiens, PC-3, read-out: Average cell viability, PC3, 10 ug/mL): 98%
- viability at 50 µg/mL (PC3; Homo sapiens, PC-3, read-out: Average cell viability, PC3, 50 ug/mL): 66%
- viability at 100 µg/mL (PC3; Homo sapiens, PC-3, read-out: Average cell viability, PC3, 100 ug/mL): 12%
- PC3 AVG (PC3; PC3, sample at 1 ug/mL): 1.07
- PC3 AVG (PC3; PC3, sample at 10 ug/mL): 1.01
- PC3 AVG (PC3; PC3, sample at 50 ug/mL): 0.68
- PC3 AVG (PC3; PC3, sample at 100 ug/mL): 0.13
- Fold change in viability AVG (PC3; 1 ug/mL): 1.07
- Fold change in viability AVG (PC3; 10 ug/mL): 1.01
- Fold change in viability AVG (PC3; 50 ug/mL): 0.68
- Fold change in viability AVG (PC3; 100 ug/mL): 0.13
- viability at 1 µg/mL ([3]; Homo sapiens, U373 MG, read-out: Average cell viability, U373, 1 ug/mL): 109%
- viability at 10 µg/mL ([3]; Homo sapiens, U373 MG, read-out: Average cell viability, U373, 10 ug/mL): 100%
- viability at 50 µg/mL ([3]; Homo sapiens, U373 MG, read-out: Average cell viability, U373, 50 ug/mL): 41%
- viability at 100 µg/mL ([3]; Homo sapiens, U373 MG, read-out: Average cell viability, U373, 100 ug/mL): 9%
- U373 AVG ([3]; U373, sample at 1 ug/mL): 1.10
- U373 AVG ([3]; U373, sample at 10 ug/mL): 1.02
- U373 AVG ([3]; U373, sample at 50 ug/mL): 0.42
- U373 AVG ([3]; U373, sample at 100 ug/mL): 0.09
- Fold change in viability AVG ([3]; 1 ug/mL): 1.10
- Fold change in viability AVG ([3]; 10 ug/mL): 1.02
- Fold change in viability AVG ([3]; 50 ug/mL): 0.42
- Fold change in viability AVG ([3]; 100 ug/mL): 0.09
- viability at 1 µg/mL ([4]; Homo sapiens, SK-OV-3, read-out: Average cell viability, SKOV, 1 ug/mL): 109%
- viability at 10 µg/mL ([4]; Homo sapiens, SK-OV-3, read-out: Average cell viability, SKOV, 10 ug/mL): 97%
- viability at 50 µg/mL ([4]; Homo sapiens, SK-OV-3, read-out: Average cell viability, SKOV, 50 ug/mL): 92%
- viability at 100 µg/mL ([4]; Homo sapiens, SK-OV-3, read-out: Average cell viability, SKOV, 100 ug/mL): 67%
- Fold change in viability AVG ([4]; 1 ug/mL): 1.17
- Fold change in viability AVG ([4]; 10 ug/mL): 1.05
- Fold change in viability AVG ([4]; 50 ug/mL): 0.89
- Fold change in viability AVG ([4]; 100 ug/mL): 0.72
- viability at 1 µg/mL ([5]; Homo sapiens, THP-1, read-out: Average cell viability, THP-1, 1 ug/mL): 99%
- viability at 10 µg/mL ([5]; Homo sapiens, THP-1, read-out: Average cell viability, THP-1, 10 ug/mL): 100%
- viability at 50 µg/mL ([5]; Homo sapiens, THP-1, read-out: Average cell viability, THP-1, 50 ug/mL): 62%
- viability at 100 µg/mL ([5]; Homo sapiens, THP-1, read-out: Average cell viability, THP-1, 100 ug/mL): 51%
- THP-1 AVG ([5]; THP-1, sample at 1 ug/mL): 1.13
- THP-1 AVG ([5]; THP-1, sample at 10 ug/mL): 1.14
- THP-1 AVG ([5]; THP-1, sample at 50 ug/mL): 0.70
- THP-1 AVG ([5]; THP-1, sample at 100 ug/mL): 0.58
- Fold change in viability AVG ([5]; 1 ug/mL): 1.12
- Fold change in viability AVG ([5]; 10 ug/mL): 1.14
- Fold change in viability AVG ([5]; 50 ug/mL): 0.70
- Fold change in viability AVG ([5]; 100 ug/mL): 0.58
- viability at 72 h, 1 ug/mL ([6]; CCD1079SK fibroblast cells (noncancerous, proliferating), 1 ug/mL): 102%
- viability at 72 h, 10 ug/mL ([6]; CCD1079SK fibroblast cells (noncancerous, proliferating), 10 ug/mL): 96%
- viability at 72 h, 50 ug/mL ([6]; CCD1079SK fibroblasts (noncancerous, proliferating), 50 ug/mL): 49%
- viability at 72 h, 100 ug/mL ([6]; CCD1079SK fibroblasts (noncancerous, proliferating), 100 ug/mL): 19%
- Fold change in viability AVG ([7]; 1 ug/mL): 1.12
- Fold change in viability AVG ([7]; 10 ug/mL): 1.05
- Fold change in viability AVG ([7]; 50 ug/mL): 0.54
- Fold change in viability AVG ([7]; 100 ug/mL): 0.21
- A549 AVG (A549 (lung carcinoma); A549, sample at 1 ug/mL): 1.15
- A549 AVG (A549 (lung carcinoma); A549, sample at 10 ug/mL): 1.18
- A549 AVG (A549 (lung carcinoma); A549, sample at 50 ug/mL): 1.03
- A549 AVG (A549 (lung carcinoma); A549, sample at 100 ug/mL): 0.86
- Fold change in viability AVG (A549 (lung carcinoma); 1 ug/mL): 1.15
- Fold change in viability AVG (A549 (lung carcinoma); 10 ug/mL): 1.18
- Fold change in viability AVG (A549 (lung carcinoma); 50 ug/mL): 1.03
- Fold change in viability AVG (A549 (lung carcinoma); 100 ug/mL): 0.86
- viability at 1 µg/mL (A549 (lung carcinoma); Homo sapiens, A549, read-out: Average cell viability, A549, 1 ug/mL): 99%
- viability at 10 µg/mL (A549 (lung carcinoma); Homo sapiens, A549, read-out: Average cell viability, A549, 10 ug/mL): 101%
- viability at 50 µg/mL (A549 (lung carcinoma); Homo sapiens, A549, read-out: Average cell viability, A549, 50 ug/mL): 88%
- viability at 100 µg/mL (A549 (lung carcinoma); Homo sapiens, A549, read-out: Average cell viability, A549, 100 ug/mL): 74%
